In patent US20060217390A1, “Cycloalkl, aryl and heteroaryl amino isothiazoles for the treatment of Hepatitis C virus” (priority 2005, published 2006):
pEC50: −log10 of the molar value. Where two headings read alike, the source gives them in different places.

What was measured:
[1] = test system: HCV Con1 subgenomic replicon in Huh-7 cells (NK/luc-ubi-neo); test: HCV replicon assay (luciferase reporter); assay type: cell-based; conditions: anti-HCV activity, class symbols; read-out: Range of EC50 in HCV replicon assay
Method: A human hepatoma cell line (Huh-7) containing replicating HCV Con1 subgenomic replicon with a luciferase reporter gene (luc-ubi-neo) was used to evaluate anti-HCV activity of the compounds. In this assay, the level of luciferase signal correlates directly with the viral RNA replication. The HCV replicon-reporter cell line (NK/luc-ubi-neo) was cultured in DMEM medium supplemented with 10% fetal bovine serum and 0.5 mg/ml Geneticin (G418). Cells were maintained in a subconfluent state to ensure high levels of HCV replicon RNA synthesis.
To evaluate the antiviral activity of compounds, serial dilutions were prepared with concentrations ranging from 0.14 to 300 μM. Diluted compounds were transferred to a 96-well plate followed by the addition of replicon cells (6000 cells per well). Cells were incubated with the compounds for 48 hours after which luciferase activity was measured.

Huh-7 cells = test system: Huh-7 cells
Text: A Huh-7 cell line carrying a luciferase reporter gene (driven by a HIV LTR promoter) stably integrated into the chromosome was used to analyze the cytotoxic effect of the selected compounds. This cell line (LTR-luc) was maintained in DMEM medium with 10% FBS. Design of the cytotoxicity assay was similar to that of the HCV replicon assay.

[2] = read-out: Range of CC50 in cytotoxicity assay, cytotoxicity, class symbols

`N#Cc1c(Nc2ccccc2Cl)s[nH]c1=O` gave a pEC50 [1] of 4.30 to 5.00 and a CC50 (Huh-7 cells) greater than 50 µM.

Compound `COc1ccc(Nc2s[nH]c(=O)c2C#N)cc1` has a pEC50 [1] of 4.30 to 5.00 and a CC50 (Huh-7 cells) greater than 50 µM.

`COc1ccccc1Nc1s[nH]c(=O)c1C#N` gave a pEC50 [1] of 4.30 to 5.00 and a CC50 (Huh-7 cells) greater than 50 µM.

Compound `N#Cc1c(Nc2ccccc2C(F)(F)F)s[nH]c1=O` has a pEC50 [1] of 4.30 to 5.00 and a CC50 (Huh-7 cells) greater than 50 µM.

With `CC(C)c1cccc(C(C)C)c1Nc1s[nH]c(=O)c1C#N` the pEC50 [1] was 4.30 to 5.00 and the CC50 (Huh-7 cells) was greater than 50 µM.

Work on `CC(C)c1ccccc1Nc1s[nH]c(=O)c1C#N` yielded a pEC50 [1] of less than 4.30 and a CC50 (Huh-7 cells) greater than 50 µM.

`N#Cc1c(Nc2ccc(F)cc2)s[nH]c1=O` gave a pEC50 [1] of 4.30 to 5.00 and a CC50 (Huh-7 cells) greater than 50 µM.

With `COC(=O)c1cccc(Nc2s[nH]c(=O)c2C#N)c1` the pEC50 [1] was less than 4.30 and the CC50 (Huh-7 cells) was greater than 50 µM.

With `COC(=O)c1ccc(Nc2s[nH]c(=O)c2C#N)cc1` the pEC50 [1] was 4.30 to 5.00 and the CC50 (Huh-7 cells; [2]) was greater than 50 µM.

`N#Cc1c(Nc2ccccc2F)s[nH]c1=O` showed a pEC50 [1] of 4.30 to 5.00 and a CC50 (Huh-7 cells) greater than 50 µM.

For `N#Cc1c(Nc2cc(C(F)(F)F)cc(C(F)(F)F)c2)s[nH]c1=O`, the pEC50 [1] was 5.00 to 6.00 and the CC50 (Huh-7 cells; [2]) was greater than 50 µM.

`COC(=O)c1ccccc1Nc1s[nH]c(=O)c1C#N` was tested, and the pEC50 [1] was less than 4.30 and the CC50 (Huh-7 cells) was greater than 50 µM.

`N#Cc1c(NC23CC4CC(CC(C4)C2)C3)s[nH]c1=O` gave a pEC50 [1] of 5.00 to 6.00 and a CC50 (Huh-7 cells) greater than 50 µM.

`N#Cc1c(Nc2ccc(Cl)cc2Cl)s[nH]c1=O` was tested, and the pEC50 [1] was 4.30 to 5.00 and the CC50 (Huh-7 cells) was greater than 50 µM.

Compound `N#Cc1c(Nc2cccc(Cl)c2Cl)s[nH]c1=O` has a pEC50 [1] of less than 4.30 and a CC50 (Huh-7 cells) greater than 50 µM.

In the case of `N#Cc1c(NCC2CCCO2)s[nH]c1=O` (stereo not shown), the pEC50 [1] was less than 4.30 and the CC50 (Huh-7 cells) was greater than 50 µM.

Work on `N#Cc1c(NCC2CCCCC2)s[nH]c1=O` yielded a pEC50 [1] of 5.00 to 6.00 and a CC50 (Huh-7 cells) greater than 50 µM.

`N#Cc1c(Nc2ccc(I)cc2)s[nH]c1=O` was tested, and the pEC50 [1] was 5.00 to 6.00 and the CC50 (Huh-7 cells) was greater than 50 µM.

Compound `N#Cc1c(Nc2ccc(I)cc2Cl)s[nH]c1=O` has a pEC50 [1] of 5.00 to 6.00 and a CC50 (Huh-7 cells; [2]) of less than 50 µM.

`N#Cc1c(Nc2ccc(I)c(Cl)c2)s[nH]c1=O` gave a pEC50 [1] greater than 6.00 and a CC50 (Huh-7 cells; [2]) greater than 50 µM.

`N#Cc1c(Nc2ccc(C(=O)O)cc2)s[nH]c1=O` was tested, and the pEC50 [1] was less than 4.30 and the CC50 (Huh-7 cells) was greater than 50 µM.

In the case of `CN(C)c1ccc(Nc2s[nH]c(=O)c2C#N)c2ccccc12`, the pEC50 [1] was less than 4.30 and the CC50 (Huh-7 cells; [2]) was greater than 50 µM.

Compound `CN(C)c1ccc2ccccc2c1Nc1s[nH]c(=O)c1C#N` has a pEC50 [1] of less than 4.30 and a CC50 (Huh-7 cells; [2]) greater than 50 µM.

Compound `N#Cc1c(NC2CCc3ccccc32)s[nH]c1=O` (stereo not shown) has a pEC50 [1] of 5.00 to 6.00 and a CC50 (Huh-7 cells) greater than 50 µM.

With `CCCC1CCC(c2ccc(Nc3s[nH]c(=O)c3C#N)cc2)CC1` (stereo not shown) the pEC50 [1] was 5.00 to 6.00 and the CC50 (Huh-7 cells; [2]) was less than 50 µM.

`N#Cc1c(Nc2ccc(C(=O)c3ccccc3)cc2)s[nH]c1=O` gave a pEC50 [1] of 4.30 to 5.00 and a CC50 (Huh-7 cells; [2]) greater than 50 µM.
